# Where two headings read alike, the source gives them in different places.
# Columns and labels:
# [1] = tested on: HCT116 MTAP-deleted cell lines; assay: Cell viability assay (CellTiter-Glo, 7 days), HCT116 MTAP-deleted; format: cell-based; conditions: for Selectivity: HCT116 WT CC50 versus HCT116 MTAP^del CC50; for plasma-adjusted CC50 (paCC50): paCC50 = CC50-HCT116-MTAP^del * (% free CCM/% free human plasma); for CC50: Homo sapiens, HCT116 MTAP-deleted
# Procedure, shortened: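 PRMT5 inhibitors were serially diluted in DMSO and acoustically spotted as dose-response series into plates before cell seeding. Cells were grown with compound for 7 days at 37 °C, 5% CO2, 90% humidity, then viability was read by CellTiter-Glo luminescence and reported as CC50.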
# [2] = Cell viability assay (CellTiter-Glo, 7 days), HCT116 WT; format: cell-based; conditions: human, HCT116 WT cells, 7 days of treatment, CTG
# Description: Control compounds were analyzed in parallel each time for quality control. In Brief, on Day -1, a serial dilution of stock compounds in DMSO was performed using BioMek liquid handlers and dispensed using Echo acoustic dispenser into 384 well plates. Both tool compounds and sample compounds were spotted in the same plate for a dose response of PRMT5 inhibitors. Compound plates were stored as frozen until the cells were ready for seeding. […] After equilibrating the plate in room temperature, the cells were incubated for 7 days inside the sealed incubator set at 37° C. with 90% humidity and 5% CO2. On Day 7, the viability of cells was measured using a CTG assay kit (CellTitre-Glo;Promega cat no. G7573). Shortly, 40 μl per well of luminescent cell viability assay reagent were dispensed using EL460 liquid dispenser 5 μl cassette. CTG luminescence signal was measured using an EnVision plate reader (PerkinElmer) in accordance with manufacturer's instruction. […] Selectivity with * is artificially high due to limited solubility of the compound hampering accurate measurement of WT CC50.
# [3] = MDR1/BCRP assay: permeability in cPgp-KO-MDCK-WT cells; format: in vitro ADME; conditions: dog, pH 7.4
# Description: The cells were maintained in an incubator at 37° C., 90% humidity, and 5% CO2 until reaching confluence over 5 days in 96-well transwell plates. Experiments were conducted using an HBSS donor buffer (Invitrogen) containing 10 mM HEPES and 15 mM glucose, adjusted to pH 7.4. The receiver well contained HBSS buffer supplemented with 1% BSA, 10 mM HEPES, and 15 mM glucose, and the pH was adjusted to 7.4. TEER values were measured to assess membrane integrity after an initial equilibration with BSA-free transport buffer for 15 minutes. The experiment was started by adding dosing solutions containing test compounds at 1 μM. Cells were dosed on the apical (A) side or basolateral (B) side at 100 μl and 200 μl, respectively, to determine forward (A to B) and reverse (B to A) permeability. At the 2-hour time point, 50 μl samples were collected from the receiver compartment. Each compound was tested in 2 separate replicate wells for each condition. All samples were immediately collected into plates, and 50 μL of acetonitrile was added. Subsequently, 350 μl of 30:70 methanol: acetonitrile containing internal standard was added to precipitate proteins and stabilize the test compounds. To test for non-specific binding and compound instability, the total amount of the drug was quantified at the end of the experiment and compared to the material present in the original dosing solution as a percentage of the recovery. All samples were analyzed by LC-MS/MS using electrospray ionization.
# The apparent permeability, Papp, and % recovery were calculated as follows: […]
# [4] = PBS solubility (kinetic solubility from DMSO stocks); format: physicochemical; conditions: 22 °C, aqueous buffer, kinetic from dmso stock; 1x PBS pH 7.4, 1.0% DMSO, 24-hour incubation at ambient temperature
# Description: Buffer Preparation: 1×PBS, 7.4: Phosphate Buffered Saline solution 10×, PBS (Fisher Bioreagent, part number BP399-500) 50 mL was added to approximately 450 mL HPLC grade H2O. The volume of the solution was then adjusted to 500 mL for a total dilution factor of 1:10 and a final PBS concentration of 1×. The pH of the final solution was measured and found to be 7.4.
# The final DMSO Concentration is 1.0% and maximum theoretical compound concentration is 100 μM (assuming stock concentration of 10 mM). The filter plate was sealed. Following 24-hour incubation at ambient temperature (20.8-24.0° C.), the samples were vacuum filtered, and the filtrates were collected in a 96 well polypropylene plate for analysis. The collection plate was sealed for analysis. Filtrates were injected into the nitrogen detector for quantification on Analiza's Automated Discovery Workstation. The results are reported here in both μM and μg/mL.
# Calculation of Results: The equimolar nitrogen response of the detector is calibrated using standards which span the dynamic range of the instrument from 0.08 to 4500 μg/ml nitrogen. The filtrates were quantified with respect to this calibration curve. The calculated solubility values are corrected for background nitrogen present in the DMSO, and the media used to prepare the samples. All reported values for compounds containing adjacent nitrogen atoms in a ring structure should be increased by ˜25%. […] The solubility results presented assume that the samples were free of nitrogen containing impurities and are stable under the assay conditions.
# [5] = Hepatocyte stability assay, human; format: in vitro ADME; conditions: human hepatocytes, 1 μM
# Description: BioreclamationIVT (Baltimore, MD) provided the cryopreserved hepatocytes, hepatocyte thawing (HT) medium, and Krebs-Henseleit buffer (KHB) medium. The stock solution concentration was 1 M in DMSO and was then diluted further in acetonitrile/water (1:1 v/v). All other chemicals were purchased from Sigma-Aldrich (St. Louis, MO) or Thermo Fisher Scientific (Waltham, MA).
# The quench solution used to stop reactions in the hepatocyte incubations was comprised of 100% (v/v) acetonitrile. Internal Standard/Quench (IS/Q) solution used to stop reactions with the positive control also contained 200 nM Labetalol.
# Metabolic Stability in Cryopreserved Hepatocytes: Test compounds, or the positive control metabolic substrate, was incubated in suspensions of cryopreserved hepatocytes at a final concentration of 1 μM. Vials containing cryopreserved hepatocytes were removed from liquid nitrogen and immediately immersed in a 37° C. water bath. The vials were swirled gently until the contents had thawed. They were then immediately emptied into 48 mL of pre-warmed thawing medium in a 50 mL conical tube. Cells remaining in the vial were re-suspended with 1.0 mL of pre-warmed thawing medium and added to the conical tube. The tube was capped and then gently inverted several times to re-suspend the hepatocytes. The cell suspension was centrifuged at 500×g for 10 minutes at room temperature and the supernatant discarded. The cell pellet was loosened by gently swirling the centrifuge tube. Non-supplemented KHB medium was added to obtain the appropriate target cell density. The viabilities of all cell preparations were ≥85%, assessed by Trypan blue dye exclusion.
# For incubations, aliquots of hepatocyte suspension (250 μL containing a cell concentration of 2×10^6 cells/mL) were added to 250 μL of 2 μM substrate (test compound or positive control) in supplemented KHB in duplicate wells in a 24-well plate. Final concentration in the incubations were 1×10^6 cells/mL and 1 μM substrate. A cell-free control incubation (KHB only) was also included. The incubations were carried out with gentle shaking in a 37° C. incubator under a humid atmosphere of 95% air/5% CO2 (v/v). Aliquots (100 μL) were removed after 0, 1, 3, and 6 hours and added to 200 μL quenching solution. The samples were then placed on a shaker for 10 min followed by centrifugation at 3000×g for 20 min. The supernatant was transferred to a new plate and diluted with 100 μL of water to reduce the organic content and then placed on a shaker for 10 mins. Samples were injected and analyzed with methods described below.
# Liquid Chromatography: Quantification of positive control and test compound was performed by analyte/internal standard peak area ratios (PAR) measured on a Thermo Scientific™ Q Exactive™ Hybrid Quadrupole-Orbitrap Mass Spectrometer MS/MS with an electrospray interface operating in positive ion mode. The mass spectrometer was coupled to a Dionex Ultimate® 3000 HPLC system. Samples (10 μL aliquots) were injected with a Leap Technologies HTC PAL autosampler. For positive control, the column used was a Thermo Scientific™ Hypersil GOLD™ HPLC column ([…], 50×2.1 mm). Mobile phase A consisted of 95% (v/v) water, 5% (v/v) acetonitrile, and contained 0.1% (v/v) formic acid (FA). Mobile phase B consisted of 95% (v/v) acetonitrile, 5% (v/v) water, and contained 0.1% (v/v) FA. Elution was achieved, at a flow rate of 0.5 mL/min, by a series of linear gradients: initial condition was 5% B at 0 min, isocratic for 20 seconds; then linear gradient to 95% B over 90 seconds, followed by isocratic for 60 seconds at 95% B, and re-equilibrated to initial conditions over 70 seconds.
# Metabolic stabilities of positive control and test compound were determined by measuring the rates of disappearance of the parent with time by determining the % of parent remaining at time t (Ct) {Obach 1997}.
# Data (% of parent remaining) were plotted on a semi-log scale and fitted using an exponential fit: […]
# [6] = HCT-116, 168 h, 7 days of treatment, CTG, read-out: CC50-HCT116-MTAP^del
# [7] = HCT-116, cell viability, class symbols, read-out: CC50
"Papp A→B at 2 h, 1 µM [3] [×10⁻⁶ cm/s]",solubility at 24 h [4] [µM],Human Predicted Hepatocyte CL [5] [mL/min/kg],SMILES,Selectivity [1],plasma-adjusted CC50 (paCC50) ([1]; HCT-116) [nM],"CC50 [1, 6] [nM]","CC50 [1, 7] [nM]",CC50 at 7 days [2] [nM]
11.3,54.7,0.83,"Nc1nc2cc(F)c(C(=O)N3CCC[C@@H]4Oc5cc(C(F)(F)F)ncc5[C@@H]43)cc2n2cncc12 [Ff-117, (4-amino-7-fluoroimidazo[1,5-a]quinoxalin-8-yl)((4aS,9bS)-7-(trifluoromethyl)-3,4,4a,9b-tetrahydrofuro[3,2-b:4,5-c′]dipyridin-1(2H)-yl)methanone]",69,269,18,< 100,1250
15.1,4,8,"[2H]C1([2H])CC[C@@H]2Oc3cc(C(F)(F)F)ccc3[C@@H]2N1C(=O)c1cc2c(cc1F)nc(N)c1cncn12 [Ff-121, (4-amino-7-fluoroimidazo[1,5-a]quinoxalin-8-yl)((4aS,9bS)-7-(trifluoromethyl)-3,4,4a,9b-tetrahydrobenzofuro[3,2-b]pyridin-1(2H)-yl-2,2-d2)methanone]",153,106,3,< 100,459
14.7,< 1,1.2,"Cc1ncc2c(N)nc3cnc(C(=O)N4CCC[C@@H]5Oc6cc(C(F)(F)F)ccc6[C@@H]54)cc3n12 [Ff-344, (4-amino-1-methylimidazo[1,5-a]pyrido[3,4-e]pyrazin-8-yl)((4aS,9bS)-7-(trifluoromethyl)-3,4,4a,9b-tetrahydrobenzofuro[3,2-b]pyridin-1(2H)-yl)methanone]",85,476,27,< 100,2300
9,25.2,0.83,"Nc1nc2cc(F)c(C(=O)N3CC[C@H]4C[C@@H]3c3ccc(C(F)(F)F)nc3O4)cc2n2cncc12 [Ff-366, (4-amino-7-fluoroimidazo[1,5-a]quinoxalin-8-yl)((2S,6R)-9-(trifluoromethyl)-3,4-dihydro-2H-2,6-methanopyrido[2,3-b][1,5]oxazocin-5(6H)-yl)methanone]",75,206,29,< 100,2170
12.6,,5.17,"Nc1nc2ccc(C(=O)N3CCC[C@@H]4Oc5cc(C(F)(F)F)cc(F)c5[C@@H]43)cc2n2cncc12 [Ff-693, (4-aminoimidazo[1,5-a]quinoxalin-8-yl)((4aS,9bS)-9-fluoro-7-(trifluoromethyl)-3,4,4a,9b-tetrahydrobenzofuro[3,2-b]pyridin-1(2H)-yl)methanone]",125,247,15,,1880
21,2.9,4.5,"Cc1ncc2c(N)nc3cnc(C(=O)N4CC[C@H]5C[C@@H]4c4cc(F)c(C(F)(F)F)cc4O5)cc3n12 [Ff-696, (4-amino-1-methylimidazo[1,5-a]pyrido[3,4-e]pyrazin-8-yl)((2S,6R)-8-fluoro-9-(trifluoromethyl)-3,4-dihydro-2H-2,6-methanobenzo[b][1,5]oxazocin-5(6H)-yl)methanone]",83,198,17,,1410
,2.5,6.7,"Nc1nc2ccc(C(=O)N3CCC[C@@H]4Oc5cc(OC(F)(F)F)cc(F)c5[C@@H]43)cc2n2cncc12 [Ff-697, (4-aminoimidazo[1,5-a]quinoxalin-8-yl)((4aS,9bS)-9-fluoro-7-(trifluoromethoxy)-3,4,4a,9b-tetrahydrobenzofuro[3,2-b]pyridin-1(2H)-yl)methanone]",199,289,25,,4990

# Source: patent US12448388B2, “PRMT5 inhibitors and uses thereof” (Gilead Sciences, Inc., priority 2023, dated 2025)
